Tests used:
[1] = tested on: human aorta endothelial cells (HAECs); assay: Nitric oxide assessment in HAECs; format: cell-based; conditions: 15 min treatment, beginning at 0.1 uM ABA
Procedure: Confluent human aorta endothelial cells (HAECs) were serum-starved using HBSS buffer for 30 min, then stimulated with various concentration of ABA and Forskolin (1 uM) for 5 min, after removing supernatant, cells were lysed with 0.1 M HCL to measure non-acetylated cAMP using a commercially available kit (Cayman chemical) following the manufacturer's instructions. Results (pmol/mL) were obtained from four independent experiments. For nitric oxide (NO), confluent HAECs were serum-starved for 30 min by using HBSS buffer, then treated with ABA for 15 min. Supernatant was used to measure NO using an fluorescent kit.

[2] = tested on: insulin-secreting pancreatic beta cells; assay: Pancreatic beta cell viability / apoptosis after streptozotocin challenge; format: cell-based
Description: Data are presented as mean±standard error.

[3] = Systolic blood pressure in ApoE-deficient mice; format: in vivo
[4] = tested on: blood CCR2+CD11b+ monocytes and regulatory T cells (Tregs); assay: Blood immune cell populations of db/db mice, flow cytometry; format: in vivo; conditions: whole blood
Procedure: Obese db/db mice were fed high-fat diets containing 0, 15, or 70 mg/kg diet rosiglitazone maleate (control, Ros^lo, and Ros^hi, respectively) with and without racemic ABA (100 mg/kg diet). On day 60 the percent of F4/80+CD11b+ in the stromal vascular fractions of abdominal white adipose tissue (Ab. WAT) (A) and subcutaneous WAT (B) were assessed by flow cytometry. The percent of CD11b+CCR2+ monocytes (C) and CD4+CD25+FoxP3+ Tregs (D) in blood were assessed in whole blood. The expressions of the M1 marker CCL17 (E) and peroxisome proliferator activated receptor γ (PPAR γ) (F) in Ab. WAT were calculated as a ratio to the housekeeping gene f3-actin. Data are represented as mean±standard error.
Mice (n=40) were fed one of six experimental diets: a control high-fat diet (control), a high-fat diet containing low dose rosiglitazone maleate (Ros^lo, 10 mg/kg diet), or a high-fat diet containing a high dose of rosiglitazone maleate (Ros^hi, 70 mg/kg diet), each with or without all racemic ABA (100 mg/kg, Sigma Aldrich, St. Louis, Mo.) for 60 days. […] Blood glucose levels were assessed with an ACCU-CHEK® Glucometer (Roche, Indianapolis, Ind.). An intraperitoneal glucose tolerance test (IPGTT, 1 g glucose/kg body weight) was conducted on fasted mice (12 h) for 0, 30, 90, and 180 minute time points and insulin levels were measured on day 54. […]

PPAR γ = target: T1, PPAR γ (Mus musculus, UniProt P37238); assay: PPAR γ reporter activity assay in 3T3-L1 preadipocytes; format: cell-based; conditions: 6 hrs, Ros 1 μM, ABA 10 μM
T1 construct: expressed in transfected cells; host or cells: 3T3-L1 pre-adipocytes
T1 sequence (P37238 31-505 limits assumed): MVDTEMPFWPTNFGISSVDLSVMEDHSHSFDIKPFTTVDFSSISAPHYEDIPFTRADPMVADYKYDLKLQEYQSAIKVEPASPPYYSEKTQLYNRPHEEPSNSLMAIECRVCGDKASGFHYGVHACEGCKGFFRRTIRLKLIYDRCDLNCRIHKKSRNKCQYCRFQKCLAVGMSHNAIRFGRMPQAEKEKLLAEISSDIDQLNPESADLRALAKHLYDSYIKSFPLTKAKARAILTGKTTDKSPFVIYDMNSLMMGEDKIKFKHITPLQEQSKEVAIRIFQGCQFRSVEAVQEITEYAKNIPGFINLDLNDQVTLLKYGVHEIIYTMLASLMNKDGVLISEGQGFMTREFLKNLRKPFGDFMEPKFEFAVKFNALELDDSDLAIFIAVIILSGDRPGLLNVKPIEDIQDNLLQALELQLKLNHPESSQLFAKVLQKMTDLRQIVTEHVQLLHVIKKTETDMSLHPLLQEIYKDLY
Procedure: For 3T3-L1 preadipocytes cells were treated for 6-h with vehicle (DMSO) or Ros (1 μM) with ABA (10 μM), the cAMP-inhibitor 2′5′ dideoxyadenosine (dideoxy, 10 μM), or 14-22 myristolated PKA inhibitor fragment (PKAi, 30 μM). […] Luciferase activity was normalized to pRL activity in the cell extracts and relative luciferase activity was calculated a ratio of the activity in the treatment wells to control wells. Data are represented as mean±standard error.
A pCMX.PPAR γ expression plasmid and a pTKPPRE3x luciferase reporter plasmid driven by the PPRE-containing Acyl-CoA oxidase promoter (kindly provided by Dr. R M. Evans, The Salk Institute, San Diego, Calif.) were purified using Qiagen's Maxi kit (Valencia, Calif.). […] Cells were co-transfected in the […] with 1.5 μg plasmid DNA and 25 ng of pRL reporter control using F-2 transfection reagents (Targeting Systems, Santee, Calif.) according to the manufacturer's protocol. […] Cells were then treated in replicates of 8 with vehicle (DMSO), rosiglitazone (1 or 10 μM; Cayman Chemicals, Arm Arbor, Mich.), or ABA (10 μM; Sigma) with and without 2′5′ dideoxyadenosine (10 μM; Sigma) and 14-22 myristolated PKA inhibitor fragment (PKAi, 30 μM; Sigma). […] Luciferase activity, normalized to pRL activity in the cell extracts was determined by using the Dual Luciferase II reporter assay system (Promega, Madison, Wis.) using a Modulus 96-well luminometer (Turner Biosystems, Sunnyvale, Calif.). All values were normalized to control wells to calculate relative luciferase activity.

[5] = mice fed ABA at doses ranging from 100 to 800 mg/kg of diet [44]; cited from earlier work

CC1=CC(=O)CC(C)(C)C1(O)/C=C/C(C)=C\C(=O)O (racemic) [ABA, abscisic acid]
nitric oxide production [1]: significantly increased | viability of insulin-secreting pancreatic beta cells ([2]; ABA 1 and 10 micromolar, streptozotocin (STZ) 2 mM for 24 hours): increases | pancreatic beta cell apoptosis caused by streptozotocin ([2]; FIG. 4): diminishes | systolic blood pressure [3]: lowers | blood CCR2+CD11b+ monocyte levels [4]: mitigated | percentages of blood regulatory T cells (Tregs) ([4]; independently of Ros): increased | PPAR γ activity (PPAR γ): increased | side-effects [5]: no detectable side-effects

Source: US9119881B2, “Method of synergistically enhancing the therapeutic efficacy and safety of medication through a combination therapy” (priority 2010, dated 2015)
